Measured values as given in patent US4738965A, “2-oxo-4-(2'-difl uoromethylthiophenyl)-5-methoxycarbonyl-6-methyl-1,2,3,4-tetrahydropyrimi dine” (Institut Organischskogo Sinteza Akademii Nauk SSR, priority 1987, dated 1988).
Read-outs that look alike come from different tables or passages of the source.

Legend:
[1] = system: Coronary Blood Flow (descending branch of the left coronary artery); assay: Coronary dilating activity: coronary blood flow in narcotized dogs with open thoracic cavity; format: in vivo; settings: for ED (50% increase): Canis lupus familiaris, read-out: Dose increasing coronary blood flow by 50%
Method: The experiments have been conducted on narcotized dogs with the open thoracic cavity. The blood flow was registered in the descending branch of the left coronary artery.
The blood flow was determined before and after the injection of the proposed compounds. The proposed compound was introduced in a single dose, intravenously, followed by calculating the increase in the coronary blood flow in percent.

Arterial Pressure = assay: Hypotensive activity in spontaneously-hypertensive rats; format: in vivo, spontaneously-hypertensive rats (SHR) of Okamoto-Aoki line; settings: SHR, single 10 mg/kg dose into the stomach; for Hypotensive activity: Table 2
Method: The experiments were conducted on spontaneously-hypertensive rats (SHR) of Okamoto-Aoki line.

[2] = system: coronary dilating activity; settings: clinical practice, in words; cited from earlier work
[3] = large doses, in words; cited from earlier work
Acute toxicity in mice = settings: mouse, in vivo, ip
[4] = system: systemic arterial pressure and cardiac output; assay: Systemic arterial pressure and cardiac output in narcotized dogs; format: in vivo; settings: 0.01-0.1 mg/kg, intravenous
Solubility = format: physicochemical
Chemical stability = format: physicochemical
in vivo = settings: mouse, ip
mongrel white mice = assay: Acute toxicity in mice; settings: ratio versus nifedipin and papaverine
[5] = 0.1 mg/kg, single dose, intravenous, narcotized dogs
[6] = 0.5 mg/kg, single dose, intravenous, narcotized dogs
[7] = 0.01 mg/kg, single dose, intravenous, narcotized dogs

SMILES: COc1ccc(Cc2nccc3cc(OC)c(OC)cc23)cc1OC [Papaverine, reference compound]
- Duration of effect [1, 5]: 5 min
- Increase of coronary blood flow [1, 5]: 20%
- Duration of effect [1, 6]: 7 min
- Increase of coronary blood flow [1, 6]: 30%
- ED (50% increase) ([1]; iv): 0.9 mg/kg
- Duration of hypotensive effect (Arterial Pressure): 3 h
- Effect on arterial pressure (in words) (Arterial Pressure): insignificant effect on arterial pressure
- Reduction of (systolic) arterial pressure (Arterial Pressure): 5%
- Hypotensive activity (Arterial Pressure): 5
- Coronary dilating activity [2]: low coronary dilating activity
- Toxicity [3]: rather high
- LD50 at 336 h (Acute toxicity in mice): 91 mg/kg

SMILES: COC(=O)C1=C(C)NC(=O)NC1c1ccccc1SC(F)F (stereo not shown) [Proposed compound, 2-oxo-4-(2'-difluoromethylthiophenyl)-5-methoxycarbonyl-6-methyl-1,2,3,4-tetrahydropyrimidine]
- Increase of coronary blood flow ([1]; 0.001 mg/kg, single dose, intravenous, narcotized dogs): 19%
- Duration of effect [1, 7]: 35 min
- Increase of coronary blood flow [1, 7]: 79%
- Duration of effect [1, 5]: 60 min
- Increase of coronary blood flow [1, 5]: 107%
- ED (50% increase) ([1]; single dose, intravenous, narcotized dogs): 0.006 mg/kg
- Duration of effect compared with nifedipin ([1]; ratio versus nifedipin): 1.7 times
- Strong and prolonged vasodilating effect with relation to coronary vessels, compared with nifedipin ([1]; ratio versus nifedipin (summary)): 1.7 times
- Coronary dilating activity compared with papaverine, by doses ([1]; ratio versus papaverine): 150 times
- Duration of effect compared with papaverine ([1]; ratio versus papaverine): over 10 times
- Strong and prolonged vasodilating effect with relation to coronary vessels, compared with papaverine ([1]; ratio versus papaverine (summary)): about 10 times
- Coronary dilating effect compared with nifedipin ([1]; versus nifedipin, in words): approximately equal in activity to nifedipin
- Change of systemic arterial pressure and cardiac output [4]: did not change the systemic arterial pressure and the cardiac output
- Duration of hypotensive effect (Arterial Pressure): 6 h
- Effect on arterial pressure (in words) (Arterial Pressure): no substantial effect on arterial pressure
- Reduction of (systolic) arterial pressure (Arterial Pressure): 8%
- Hypotensive activity (Arterial Pressure): 8
- Solubility in organic solvents (Solubility; ethyl alcohol, acetone, chloroform and other organic solvents): comparatively easily-soluble in ethyl alcohol, acetone, chloroform and other organic solvents
- Solubility in water (Solubility; water): insoluble in water
- Chemical stability (Chemical stability): chemically stable
- LD50 at 336 h (in vivo): > 2000 mg/kg
- Toxicity, times lower than that of nifedipin and papaverine (mongrel white mice): 10-20 times
